Reference: patent publication US6713251B2, “Method for detection of drug-induced mutations in the reverse transcriptase gene” (Innogenetics N.V., priority 1996, dated 2004)

Assays:
[1] = tested on: CD4 cells; assay: Follow-up of CD4 cell count in treated HIV-1 infected patients; type: in vivo, human
Description: (§1) Plasma samples were taken from HIV type-1 infected patients and stored at −20° C. until use. Patients were treated with AZT, ddI, ddC, D4T, 3TC, or several combinations of these prodrugs. The European serum samples tested were randomly selected. For the US serum collection, only the first sample from a follow-up series was taken. Some of these US patients were treated, others were not treated.
We selected follow-up samples from three patients and analyzed the viral genotype on the 48 LiPA probes. FIG. 3 illustrates the applicability of genotypic resistance measurement in conjunction with the analysis of viral load and CD4 cell count.

[2] = tested on: HIV-1; assay: Follow-up of plasma HIV RNA copy number (viral load, HIV Monitor test) in treated patients; type: in vivo, human
Description: as §1
For cDNA synthesis and PCR amplification, the RNA pellet was dissolved in 15 μl random primers (20 ng/μl, pdN6, Pharmacia), prepared in DEPC-treated or HPLC grade water. After denaturation at 70° C. for 10 minutes, 5 μl cDNA mix was added, composed of 4 μl 5×AMV-RT buffer (250 mM Tris.HCl pH 8.5, 100 mM KCl, 30 mM MgCl2, 25 mM DTT), 0.4 μL 25 mM dXTPs, 0.2 μl or 25U Ribonuclease Inhibitor (HPRI, Amersham), and 0.3 μl or 8U AMV-RT (Stratagene). CDNA synthesis occurred during the 90 minutes incubation at 42° C. The HIV RT gene was then amplified using the following reaction mixture. […] Nested round PCR products were analysed on agarose gel and only clearly visible amplification products were used in the LiPA procedure. Quantification of viral RNA was obtained with the HIV Monitor™test (Roche, Brussels, Belgium).
We selected follow-up samples from three patients and analyzed the viral genotype on the 48 LiPA probes. […]

Compound	CD4 count increase ([1]; Patient 94013, 3TC monotherapy from week 2 onwards, highest level at week 10) [fold]	Viral load decrease ([2]; Patient 94013, 3TC monotherapy from week 2 onwards) [log units]	Change in CD4 count ([1]; Patient 92021, AZT monotherapy from week 10, peak at week 21)	Effect on viral load ([2]; Patient 92021, ten weeks of AZT treatment (from week 10), values of week 16 and 19)
Nc1ccn([C@@H]2CS[C@H](CO)O2)c(=O)n1 [3TC, (−)-β-L-2′,3′-dideoxy-3′-thioCytidine]	~2.5	3	–	–
Cc1cn([C@H]2C[C@H](N=[N+]=[N-])[C@@H](CO)O2)c(=O)[nH]c1=O [AZT, 3′-azido-2′,3′-dideoxyThymidine]	–	–	initially increased	did not result in a drop in viral load
